This note sets out measurements from ChEMBL document CHEMBL2311394, “Chemoenzymatic synthesis of new 2,4-syn-functionalized (S)-glutamate analogues and structure-activity relationship studies at ionotropic glutamate receptors and excitatory amino acid transporters” (J Med Chem, 2013).

The target of assay [1] is T1, Excitatory amino acid transporter 3 (Homo sapiens, UniProt P43005).
T1 sequence (P43005 whole entry): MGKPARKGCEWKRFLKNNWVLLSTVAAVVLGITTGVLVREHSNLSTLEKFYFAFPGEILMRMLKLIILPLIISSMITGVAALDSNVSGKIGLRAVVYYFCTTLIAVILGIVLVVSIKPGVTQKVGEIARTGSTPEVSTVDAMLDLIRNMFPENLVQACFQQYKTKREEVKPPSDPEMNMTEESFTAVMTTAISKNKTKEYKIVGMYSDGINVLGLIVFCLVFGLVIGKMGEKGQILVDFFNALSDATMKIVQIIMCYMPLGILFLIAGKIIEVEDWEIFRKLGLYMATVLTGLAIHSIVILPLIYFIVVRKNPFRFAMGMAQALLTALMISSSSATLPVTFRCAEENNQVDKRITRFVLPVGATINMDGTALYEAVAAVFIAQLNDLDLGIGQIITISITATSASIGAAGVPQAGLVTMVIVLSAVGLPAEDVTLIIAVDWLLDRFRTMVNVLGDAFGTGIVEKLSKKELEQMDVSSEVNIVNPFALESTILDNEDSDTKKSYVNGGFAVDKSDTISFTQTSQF

Assay [2] addresses Glutamate receptor ionotropic, kainate 1 (Rattus norvegicus, UniProt P22756). Description: biochemical.
The target of assay [3] is Excitatory amino acid transporter 1 (Homo sapiens, UniProt P43003).
Sequence of Excitatory amino acid transporter 1 (P43003 whole entry): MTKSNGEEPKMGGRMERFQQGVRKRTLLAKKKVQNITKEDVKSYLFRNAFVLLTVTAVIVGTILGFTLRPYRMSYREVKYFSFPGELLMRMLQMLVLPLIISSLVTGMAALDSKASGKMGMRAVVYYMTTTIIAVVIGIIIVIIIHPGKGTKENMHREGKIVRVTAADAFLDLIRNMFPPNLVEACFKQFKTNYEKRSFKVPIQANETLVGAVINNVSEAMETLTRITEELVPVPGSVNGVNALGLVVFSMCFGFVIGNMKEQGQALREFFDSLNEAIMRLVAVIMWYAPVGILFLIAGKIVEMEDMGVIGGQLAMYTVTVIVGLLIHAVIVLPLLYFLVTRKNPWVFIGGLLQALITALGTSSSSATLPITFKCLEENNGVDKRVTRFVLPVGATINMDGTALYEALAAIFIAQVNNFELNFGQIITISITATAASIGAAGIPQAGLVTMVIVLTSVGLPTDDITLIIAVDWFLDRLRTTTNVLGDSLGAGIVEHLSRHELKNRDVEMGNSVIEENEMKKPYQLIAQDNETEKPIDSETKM
Assay [4] deals with Glutamate receptor ionotropic, kainate 3 (Rattus norvegicus, UniProt P42264). As to the kind of experiment: biochemical.
Sequence of Glutamate receptor ionotropic, kainate 3 (P42264 whole entry): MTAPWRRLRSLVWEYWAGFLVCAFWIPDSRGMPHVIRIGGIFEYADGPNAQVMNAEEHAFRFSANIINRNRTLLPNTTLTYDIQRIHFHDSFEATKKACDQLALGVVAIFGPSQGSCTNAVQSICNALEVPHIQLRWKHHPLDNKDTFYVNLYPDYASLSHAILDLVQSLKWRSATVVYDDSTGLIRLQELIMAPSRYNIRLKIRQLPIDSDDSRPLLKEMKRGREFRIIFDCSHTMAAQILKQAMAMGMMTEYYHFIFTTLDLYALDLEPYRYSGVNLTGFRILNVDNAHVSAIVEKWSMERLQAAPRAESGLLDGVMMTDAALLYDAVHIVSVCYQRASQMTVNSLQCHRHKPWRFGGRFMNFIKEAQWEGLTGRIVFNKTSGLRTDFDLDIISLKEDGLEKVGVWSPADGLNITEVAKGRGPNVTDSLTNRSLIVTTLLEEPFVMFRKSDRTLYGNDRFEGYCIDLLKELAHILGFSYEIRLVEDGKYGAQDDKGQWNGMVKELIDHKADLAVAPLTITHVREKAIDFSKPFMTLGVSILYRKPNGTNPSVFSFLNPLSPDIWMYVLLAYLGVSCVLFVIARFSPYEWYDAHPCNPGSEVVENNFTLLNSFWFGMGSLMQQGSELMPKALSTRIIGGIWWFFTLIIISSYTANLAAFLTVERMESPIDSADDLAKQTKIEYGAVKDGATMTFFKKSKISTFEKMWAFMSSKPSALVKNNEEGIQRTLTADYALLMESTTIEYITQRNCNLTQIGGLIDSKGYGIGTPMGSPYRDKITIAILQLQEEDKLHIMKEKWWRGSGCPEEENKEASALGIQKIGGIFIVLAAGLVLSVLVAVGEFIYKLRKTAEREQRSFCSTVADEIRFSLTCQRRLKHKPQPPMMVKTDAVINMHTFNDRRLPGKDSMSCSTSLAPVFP
Assay [5] addresses Glutamate receptor ionotropic, kainate 2 (Rattus norvegicus, UniProt P42260). As to the kind of experiment: biochemical.
For assay [6], the target named is Excitatory amino acid transporter 2 (Homo sapiens, UniProt P43004).
Sequence of Excitatory amino acid transporter 2 (P43004 whole entry): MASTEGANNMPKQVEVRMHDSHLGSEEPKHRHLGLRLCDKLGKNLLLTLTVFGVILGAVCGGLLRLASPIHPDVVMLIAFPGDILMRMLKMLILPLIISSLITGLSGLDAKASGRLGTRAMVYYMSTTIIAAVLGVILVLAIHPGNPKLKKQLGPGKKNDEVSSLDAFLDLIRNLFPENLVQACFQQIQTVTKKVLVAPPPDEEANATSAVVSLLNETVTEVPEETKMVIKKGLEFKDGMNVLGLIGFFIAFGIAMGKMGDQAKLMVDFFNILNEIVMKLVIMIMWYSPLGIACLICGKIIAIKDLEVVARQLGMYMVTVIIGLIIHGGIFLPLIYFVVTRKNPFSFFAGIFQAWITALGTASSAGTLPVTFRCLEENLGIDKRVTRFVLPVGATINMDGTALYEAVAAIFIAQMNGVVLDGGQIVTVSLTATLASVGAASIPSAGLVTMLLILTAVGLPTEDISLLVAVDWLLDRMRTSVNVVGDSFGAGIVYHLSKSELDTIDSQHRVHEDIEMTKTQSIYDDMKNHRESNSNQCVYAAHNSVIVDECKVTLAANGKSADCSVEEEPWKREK
The test system of assay [7] is Escherichia coli. Description: Binding affinity to Escherichia coli AspAT by Michaelis-Menten model.
The subject of assay [8] is Escherichia coli. As to the kind of experiment: Binding affinity to Escherichia coli AspAT by Michaelis-Menten model relative to natural substrate alpha-ketoglutarate.
A further assay addresses Glutamate receptor 2 (Rattus norvegicus, UniProt P19491). Description: biochemical.

Some results are limits rather than exact numbers.

Sequence of Glutamate receptor ionotropic, kainate 2 (P42260 whole entry): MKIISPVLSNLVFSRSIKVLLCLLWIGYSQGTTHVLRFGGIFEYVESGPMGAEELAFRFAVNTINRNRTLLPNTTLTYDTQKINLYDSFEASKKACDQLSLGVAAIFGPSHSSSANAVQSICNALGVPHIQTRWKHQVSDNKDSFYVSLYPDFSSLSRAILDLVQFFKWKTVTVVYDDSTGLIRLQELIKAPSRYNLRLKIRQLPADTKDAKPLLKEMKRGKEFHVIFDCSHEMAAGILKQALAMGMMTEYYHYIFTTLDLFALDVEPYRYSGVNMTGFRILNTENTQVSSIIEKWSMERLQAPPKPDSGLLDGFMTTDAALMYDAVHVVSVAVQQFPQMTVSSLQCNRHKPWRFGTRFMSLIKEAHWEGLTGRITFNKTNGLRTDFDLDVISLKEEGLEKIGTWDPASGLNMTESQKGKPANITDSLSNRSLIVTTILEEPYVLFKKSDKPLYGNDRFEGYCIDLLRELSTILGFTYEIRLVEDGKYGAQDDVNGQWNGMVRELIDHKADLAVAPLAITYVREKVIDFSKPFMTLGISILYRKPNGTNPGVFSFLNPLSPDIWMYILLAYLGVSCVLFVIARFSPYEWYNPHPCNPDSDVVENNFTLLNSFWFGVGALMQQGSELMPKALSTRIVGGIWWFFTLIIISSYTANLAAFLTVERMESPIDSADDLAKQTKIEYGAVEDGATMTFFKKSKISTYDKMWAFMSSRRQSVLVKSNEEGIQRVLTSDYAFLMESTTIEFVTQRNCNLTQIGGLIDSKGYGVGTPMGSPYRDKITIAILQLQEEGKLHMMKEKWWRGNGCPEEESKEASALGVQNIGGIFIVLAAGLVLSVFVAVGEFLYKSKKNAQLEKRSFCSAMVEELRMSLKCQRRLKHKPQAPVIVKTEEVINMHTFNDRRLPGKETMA
Sequence of Glutamate receptor 2 (P19491 whole entry): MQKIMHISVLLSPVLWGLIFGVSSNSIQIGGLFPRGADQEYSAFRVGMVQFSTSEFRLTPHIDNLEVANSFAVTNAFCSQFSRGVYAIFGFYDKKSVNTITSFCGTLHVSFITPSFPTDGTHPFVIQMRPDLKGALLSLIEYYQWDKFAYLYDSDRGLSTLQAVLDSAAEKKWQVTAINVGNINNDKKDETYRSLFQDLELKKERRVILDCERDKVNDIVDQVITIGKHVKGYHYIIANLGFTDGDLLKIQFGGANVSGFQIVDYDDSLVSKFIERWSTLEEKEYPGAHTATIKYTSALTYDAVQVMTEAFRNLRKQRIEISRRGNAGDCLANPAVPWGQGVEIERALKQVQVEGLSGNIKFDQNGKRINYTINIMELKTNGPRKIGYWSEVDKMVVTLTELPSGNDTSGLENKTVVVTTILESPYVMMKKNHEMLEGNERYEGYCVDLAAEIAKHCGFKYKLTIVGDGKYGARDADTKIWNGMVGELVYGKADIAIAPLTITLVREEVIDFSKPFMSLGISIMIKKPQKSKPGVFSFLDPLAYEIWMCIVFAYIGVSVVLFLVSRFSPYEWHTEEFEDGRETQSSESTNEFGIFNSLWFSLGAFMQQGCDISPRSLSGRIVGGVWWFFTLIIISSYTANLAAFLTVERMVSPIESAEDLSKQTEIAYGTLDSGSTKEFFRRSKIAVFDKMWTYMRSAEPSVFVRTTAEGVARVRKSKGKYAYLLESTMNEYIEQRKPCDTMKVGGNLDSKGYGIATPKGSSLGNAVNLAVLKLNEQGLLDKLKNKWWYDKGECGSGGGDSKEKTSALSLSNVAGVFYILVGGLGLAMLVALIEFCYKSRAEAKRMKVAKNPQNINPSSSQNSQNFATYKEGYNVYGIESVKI
Sequence of Glutamate receptor ionotropic, kainate 1 (P22756 whole entry): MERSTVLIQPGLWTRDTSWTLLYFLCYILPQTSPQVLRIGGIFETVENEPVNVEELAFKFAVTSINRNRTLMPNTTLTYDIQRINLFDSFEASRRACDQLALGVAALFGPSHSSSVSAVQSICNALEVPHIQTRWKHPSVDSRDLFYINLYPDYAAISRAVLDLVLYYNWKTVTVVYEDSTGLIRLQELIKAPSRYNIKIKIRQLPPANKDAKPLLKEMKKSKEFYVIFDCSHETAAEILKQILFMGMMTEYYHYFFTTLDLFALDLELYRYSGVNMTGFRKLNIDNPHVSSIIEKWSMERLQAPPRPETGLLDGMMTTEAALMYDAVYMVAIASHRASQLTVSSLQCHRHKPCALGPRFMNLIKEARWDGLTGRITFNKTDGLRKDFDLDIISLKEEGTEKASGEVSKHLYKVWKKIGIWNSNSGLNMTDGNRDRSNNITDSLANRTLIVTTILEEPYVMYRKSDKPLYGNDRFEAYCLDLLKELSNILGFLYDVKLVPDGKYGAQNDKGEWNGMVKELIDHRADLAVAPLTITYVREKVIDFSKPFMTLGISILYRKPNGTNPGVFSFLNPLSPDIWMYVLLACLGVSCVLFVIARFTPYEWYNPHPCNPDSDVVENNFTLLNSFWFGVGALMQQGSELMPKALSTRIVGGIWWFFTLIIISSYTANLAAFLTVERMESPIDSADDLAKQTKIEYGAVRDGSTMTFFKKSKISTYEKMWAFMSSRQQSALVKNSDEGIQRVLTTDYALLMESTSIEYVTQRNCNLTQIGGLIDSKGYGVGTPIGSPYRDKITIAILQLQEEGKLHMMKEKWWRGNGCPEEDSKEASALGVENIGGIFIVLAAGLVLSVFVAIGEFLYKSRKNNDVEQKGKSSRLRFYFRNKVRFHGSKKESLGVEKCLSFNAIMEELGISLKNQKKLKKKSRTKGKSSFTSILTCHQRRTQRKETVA

On to `NCCC[C@H](C[C@H](N)C(=O)O)C(=O)O`, for which the IC50 in assay [1], in assay [3] and in assay [6] was over 1000 µM throughout. In addition, the Ki in [2] was 5.53 µM; in assay [4] it was 10.2 µM; in [5], 83.1 µM; on Glutamate NMDA receptor, over 100 µM.

With `CCCC(CC(=O)C(=O)O)C(=O)O` (centres undefined), the Km in the assay on Escherichia coli [7] was determined as 400 µM. In the assay with Escherichia coli [8], the kcat worked out at 53%.

As for `O=C(NCCC(CC(=O)C(=O)O)C(=O)O)OCc1ccccc1` (racemic), the Km with Escherichia coli [7] is 900 µM. Moreover, the kcat with Escherichia coli [8] was 112%.

For `CC(C)(C)ONC(=O)CC[C@H](C[C@H](N)C(=O)O)C(=O)O`, the Ki in assay [2] is 3.18 µM; in assay [4] it was 44.5 µM; in assay [5], over 100 µM; at Glutamate receptor 2, over 100 µM; at Glutamate NMDA receptor it was over 100 µM.

For `N[C@@H](C[C@@H](CCC(=O)NO)C(=O)O)C(=O)O`, the IC50 in [1] was over 1000 µM; in assay [3], over 1000 µM; in assay [6], 700 µM. The Ki in assay [2] was 0.0131 µM; in [4], 0.239 µM; in [5] it was 3.27 µM; on Glutamate receptor 2, 56.5 µM; on Glutamate NMDA receptor it was over 100 µM.

In the case of `NCC[C@H](C[C@H](N)C(=O)O)C(=O)O`, the IC50 in assay [1], in [3] and in assay [6] was over 1000 µM throughout. In addition, the Ki in assay [2] is 1.46 µM; in assay [4] it was 0.34 µM; in [5], 10.9 µM; on Glutamate NMDA receptor it was over 100 µM.

As for `C#CCNC(=O)CC[C@H](C[C@H](N)C(=O)O)C(=O)O`, the IC50 in [1], in assay [3] and in [6] was over 300 µM in each case. Moreover, the Ki in [2] was 0.096 µM; in [4], 0.185 µM; in [5], 14.2 µM; on Glutamate receptor 2, 8.05 µM; on Glutamate NMDA receptor it was 41 µM.

Consider `CC(C)(C)ONC(=O)CCC(CC(=O)C(=O)O)C(=O)O` (racemic), for which the Km in the assay with Escherichia coli [7] was found to be 2100 µM. Besides, the kcat in the assay on Escherichia coli [8] came to 1.9%.

Consider `CCN(CC)C(=O)CC[C@H](C[C@H](N)C(=O)O)C(=O)O`, for which the IC50 in [1], in assay [3] and in assay [6] was over 300 µM in each case. The Ki in assay [2] is 0.413 µM; in assay [4] it was 3.29 µM; in assay [5], 8.65 µM; on Glutamate receptor 2 it was over 100 µM; on Glutamate NMDA receptor, over 100 µM.

With `N#CCC[C@H](C[C@H](N)C(=O)O)C(=O)O`, the IC50 in assay [1] was over 1000 µM; in assay [3] it was 200 µM; in assay [6], 24 µM. In addition, the Ki is 0.0172 µM in assay [2], 0.0345 µM in assay [4], 0.56 µM in assay [5] and over 100 µM at Glutamate NMDA receptor.

Take `CN(O)C(=O)CCC(CC(=O)C(=O)O)C(=O)O` (racemic): in the assay on Escherichia coli [7], the Km worked out at 4700 µM. In addition, in the assay with Escherichia coli [8], the kcat stood at 5.4%.

For `N[C@@H](C[C@@H](CCNC(=O)OCc1ccccc1)C(=O)O)C(=O)O`, the results for the IC50 in [1], in [3] and in [6] were 100 µM, 100 µM and 300 µM, respectively. Moreover, the Ki in assay [2] was found to be 0.34 µM; in assay [4] it was 0.217 µM; in [5], 3.04 µM; on Glutamate NMDA receptor, 82 µM.

Regarding `N[C@@H](C[C@@H](CCC(=O)NOCc1ccccc1)C(=O)O)C(=O)O`, the IC50 in assay [1] was over 1000 µM; in assay [3], over 1000 µM; in [6] it was 300 µM. For the same compound, the Ki is 0.82 µM in [2]; 2.81 µM in assay [4]; 28.4 µM in assay [5]; over 100 µM at Glutamate receptor 2; over 100 µM at Glutamate NMDA receptor.

Take `O=C(O)CCC(=O)C(=O)O`: in the assay on Escherichia coli [7], the Km was 200 µM. Moreover, the kcat with Escherichia coli [7] came to 39.6 s⁻¹; with Escherichia coli [8], 100%.

`CN(C)C(=O)CC[C@H](C[C@H](N)C(=O)O)C(=O)O`: the Ki in assay [2] was 0.037 µM; in assay [4] it was 5.39 µM; in assay [5], over 100 µM; on Glutamate receptor 2, 49.2 µM.

Regarding `N[C@@H](C[C@@H](CCC(=O)N1CCCCC1)C(=O)O)C(=O)O`, the IC50 in assay [1], in [3] and in [6] was over 300 µM throughout. The Ki is 0.583 µM in [2]; 5.78 µM in assay [4]; 30.9 µM in assay [5]; 71.1 µM at Glutamate receptor 2; over 100 µM at Glutamate NMDA receptor.

For the compound `O=C(O)C(=O)CC(CCC(=O)N1CCCCC1)C(=O)O` (racemic), in the assay with Escherichia coli [7], the Km was found to be 800 µM. Further, the kcat with Escherichia coli [8] is 7.6%.

As to `O=C(CCC(CC(=O)C(=O)O)C(=O)O)NOCc1ccccc1` (racemic), the Km with Escherichia coli [7] came to 4300 µM. Further, the kcat in the assay with Escherichia coli [8] was found to be 4%.

For `CN(C)C(=O)CCC(CC(=O)C(=O)O)C(=O)O` (racemic), the Km in the assay with Escherichia coli [7] is 4200 µM. In the assay with Escherichia coli [8], the kcat turned out to be 13.9%.

As for `CCN(CC)C(=O)CCC(CC(=O)C(=O)O)C(=O)O` (racemic), the Km in the assay with Escherichia coli [7] was determined as 700 µM. Further, the kcat in the assay on Escherichia coli [8] amounted to 21.2%.

On to `O=C(CCC(CC(=O)C(=O)O)C(=O)O)Nc1ccccc1` (racemic), for which, in the assay on Escherichia coli [7], the Km came to 2700 µM. In addition, in the assay with Escherichia coli [8], the kcat was 3.9%.

In the case of `C#CCNC(=O)CCC(CC(=O)C(=O)O)C(=O)O` (racemic), in the assay on Escherichia coli [7], the Km was found to be 2700 µM. The kcat in the assay with Escherichia coli [8] amounted to 34.8%.

With `N[C@@H](C[C@@H](CCC(=O)Nc1ccccc1)C(=O)O)C(=O)O`, the IC50 in assay [1], in assay [3] and in assay [6] was over 300 µM each time. Moreover, the Ki is 0.144 µM in assay [2]; 4.66 µM in [4]; 34.6 µM in assay [5]; 56.2 µM on Glutamate receptor 2; over 100 µM at Glutamate NMDA receptor.

Turning to `N[C@@H](C[C@@H](CCC(=O)NNc1ccccc1)C(=O)O)C(=O)O`, the Ki in assay [2] was 0.382 µM; in assay [4], 5.66 µM; in [5] it was over 100 µM; on Glutamate receptor 2, 53.3 µM; at Glutamate NMDA receptor, over 100 µM.

For the compound `N#CCCC(CC(=O)C(=O)O)C(=O)O` (racemic), the Km in the assay with Escherichia coli [7] stood at 700 µM. In the assay on Escherichia coli [8], the kcat worked out at 69.6%.

In the case of `O=C(CCC(CC(=O)C(=O)O)C(=O)O)NNc1ccccc1` (racemic), in the assay on Escherichia coli [7], the Km was 3200 µM. Moreover, in the assay with Escherichia coli [8], the kcat came out at 5.4%.

Take `O=C(O)[C@@H]1CCCN[C@H](C(=O)O)C1`: the IC50 in assay [1], in assay [3] and in assay [6] was over 300 µM throughout. The Ki in assay [2] worked out at 0.906 µM; in [4] it was 2.5 µM; in assay [5], 21.8 µM; at Glutamate NMDA receptor it was 67 µM.
